Measured values taken from the NIST ThermoML archive (doi:10.1021/acs.jced.5b00536).
Where “and” joins values, the source holds several entries; their conditions need not be identical. Equal values may be shown once.

Test: xn = mol fraction of the nth substance listed
Conditions: x2 = 0.79; for electrical conductivity / mass density: 100 kPa, Liquid; for electrical conductivity: Alternating current cell with electrodes; for mass density: Buoyancy - hydrostatic balance; for surface tension liquid-gas: Maximal bubble pressure

[Ca+2].[F-].[F-] [calcium fluoride] + [F-].[Li+]
Conditions	electrical conductivity [S/m]	mass density	surface tension liquid-gas [mN/m]
1131.2 K	0.05865	–	–
1131.4 K	–	2066.7 kg/m3	–
1131.9 K	–	2066.7 kg/m3	–
1132.7 K	–	2065.5 kg/m3	–
1132.8 K	–	2066 kg/m3	–
1133 K	0.05876	–	–
1133.3 K	–	2064.9 kg/m3	–
1134.1 K	–	2064.2 kg/m3	–
1134.2 K	–	2064.2 kg/m3	–
1134.7 K	0.05888	–	–
1135 K	–	2063.5 kg/m3	–
1135.3 K	–	2062.4 kg/m3 and 2063 kg/m3	–
1135.7 K	–	2062.4 kg/m3	–
1136.2 K	–	2061.7 kg/m3	–
1136.4 K	0.05912	–	–
1136.5 K	–	2060.6 kg/m3	–
1136.8 K	–	2060.6 kg/m3	–
1136.9 K	–	2061.1 kg/m3	–
1137.2 K	–	2060 kg/m3	–
1137.5 K	–	2061.6 kg/m3	–
1137.8 K	–	2061 kg/m3	–
1138.1 K	0.05927	–	–
1138.2 K	–	2060.4 kg/m3	–
1138.7 K	–	2059.8 kg/m3	–
1139.3 K	–	2059.2 kg/m3	–
1139.9 K	0.05965	–	–
1140 K	–	2059.1 kg/m3	–
1140.4 K	–	2058.5 kg/m3	–
1140.8 K	–	2057.9 kg/m3	–
1141.1 K	–	2057.3 kg/m3	–
1141.4 K	–	2056.7 kg/m3	–
1141.5 K	0.05989	–	–
1142 K	–	2056.6 kg/m3	–
1142.7 K	–	2056 kg/m3	–
1143.2 K	0.06013	–	–
1143.4 K	–	2055.4 kg/m3	–
1143.5 K	–	2054.8 kg/m3	–
1144.2 K	–	2054.7 kg/m3	–
1144.4 K	–	2054.1 kg/m3	–
1144.7 K	–	2053.5 kg/m3	–
1144.9 K	0.06033	–	–
1145.2 K	–	2053.5 kg/m3	–
1145.5 K	–	2052.9 kg/m3	–
1146 K	–	2061.1 kg/m3	–
1146.5 K	0.06057	2061.1 kg/m3	–
1146.9 K	–	2060.5 kg/m3	–
1147.5 K	–	2059.8 kg/m3	–
1147.8 K	–	2059.2 kg/m3	–
1148 K	–	2059.2 kg/m3	–
1148.2 K	0.06057	–	–
1148.6 K	–	2058.6 kg/m3	–
1148.9 K	–	2058 kg/m3	–
1149 K	–	2058 kg/m3	–
1149.7 K	–	2057.4 kg/m3	–
1149.9 K	0.06079	–	–
1150.3 K	–	2056.7 kg/m3	–
1150.8 K	–	2056.7 kg/m3	–
1151 K	–	–	215.9
1151.4 K	0.06095	2056.1 kg/m3	–
1152 K	–	2055.4 kg/m3	–
1152.6 K	–	2055.4 kg/m3	–
1152.9 K	–	2054.8 kg/m3	–
1153 K	0.06111	–	–
1153.8 K	–	2054.1 kg/m3	–
1154.1 K	–	2053.5 kg/m3	–
1154.5 K	0.06131	–	–
1154.6 K	–	2053.5 kg/m3	–
1154.8 K	–	2052.3 kg/m3 and 2052.9 kg/m3	–
1155.5 K	–	2051.7 kg/m3	–
1155.6 K	–	2051.7 kg/m3	–
1155.9 K	–	2051.1 kg/m3	–
1156.2 K	0.0616	–	–
1156.5 K	–	2050.5 kg/m3	–
1156.6 K	–	2049.9 kg/m3 and 2051 kg/m3	–
1157.1 K	–	2050.4 kg/m3	–
1157.5 K	–	2050.4 kg/m3	–
1157.7 K	0.06168	2049.8 kg/m3	–
1158.8 K	–	2049.1 kg/m3	–
1159 K	–	2048.5 kg/m3	–
1159.1 K	–	2048.5 kg/m3	–
1159.2 K	0.06195	–	–
1159.9 K	–	2047.9 kg/m3	–
1160.2 K	–	2047.3 kg/m3	–
1160.7 K	0.06201	–	–
1161.3 K	–	2046.6 kg/m3	–
1161.9 K	–	2046 kg/m3	–
1162.1 K	0.062142	–	–
1162.8 K	–	2045.9 kg/m3	–
1163.2 K	–	2045.3 kg/m3	–
1163.6 K	0.062335	2044.7 kg/m3	–
1164.3 K	–	2044.6 kg/m3	–
1164.7 K	–	2048.4 kg/m3	–
1164.8 K	0.062395	–	–
1164.9 K	–	2048.4 kg/m3	–
1165.1 K	–	2048.4 kg/m3	–
1165.4 K	–	2047.8 kg/m3	–
1166.2 K	–	2047.1 kg/m3	–
1166.5 K	–	2046.5 kg/m3	–
1167.2 K	–	2046.4 kg/m3	–
1167.7 K	–	2045.8 kg/m3	–
1167.9 K	–	2045.3 kg/m3	–
1168.5 K	–	2045.2 kg/m3	–
1168.8 K	–	2044.6 kg/m3	–
1169 K	–	2044.6 kg/m3	–
1169.3 K	–	2044 kg/m3	–
1169.9 K	–	2043.4 kg/m3	–
1170 K	–	–	216
1170.1 K	–	2042.8 kg/m3	–
1170.6 K	–	2042.7 kg/m3	–
1171.2 K	–	2042.1 kg/m3	–
1171.5 K	–	2041.5 kg/m3	–
1171.9 K	–	2040.9 kg/m3	–
1172.2 K	–	2040.9 kg/m3	–
1172.9 K	–	2040.3 kg/m3	–
1173.2 K	–	2039.7 kg/m3	–
1173.3 K	–	2039.1 kg/m3	–
1173.6 K	–	2039.1 kg/m3	–
1173.8 K	–	2038.5 kg/m3	–
1174.9 K	–	2043.9 kg/m3	–
1175.4 K	–	2043.3 kg/m3	–
1176 K	–	2042.7 kg/m3	–
1176.3 K	–	2042.1 kg/m3	–
1177.1 K	–	2042 kg/m3	–
1177.5 K	–	2041.4 kg/m3	–
1178.4 K	–	2040.7 kg/m3	–
1179.4 K	–	2040 kg/m3	–
1179.7 K	–	2040 kg/m3	–
1180.3 K	–	2039.4 kg/m3	–
1180.5 K	–	2038.3 kg/m3 and 2038.8 kg/m3	–
1180.8 K	–	2037.7 kg/m3	–
1181 K	–	2037.1 kg/m3	–
1181.2 K	–	2037.1 kg/m3	–
1181.6 K	–	2036.5 kg/m3	–
1182.2 K	–	2035.9 kg/m3	–
1182.5 K	–	2035.8 kg/m3	–
1182.8 K	–	2035.2 kg/m3	–
1183.2 K	–	2034.6 kg/m3	–
1183.9 K	–	2034.6 kg/m3	–
1184.1 K	–	2034 kg/m3	–
1184.5 K	–	2033.9 kg/m3	–
1185.8 K	–	2036.5 kg/m3	–
1186.6 K	–	2035.9 kg/m3	–
1187 K	–	2035.3 kg/m3	–
1187.8 K	–	2035.2 kg/m3	–
1188 K	–	–	213.8
1188.4 K	–	2034.6 kg/m3	–
1189.1 K	–	2033.9 kg/m3	–
1189.4 K	–	2033.9 kg/m3	–
1189.9 K	–	2033.3 kg/m3	–
1190.2 K	–	2032.7 kg/m3	–
1190.8 K	–	2032.6 kg/m3	–
1191.6 K	–	2032 kg/m3	–
1192.4 K	–	2031.4 kg/m3	–
1192.9 K	–	2030.7 kg/m3	–
1193.2 K	–	2030.7 kg/m3	–
1193.7 K	–	2030.1 kg/m3	–
1194.1 K	–	2029.5 kg/m3	–
1194.4 K	–	2029.5 kg/m3	–
1194.5 K	–	2028.9 kg/m3	–
1194.7 K	–	2028.3 kg/m3	–
1195.3 K	–	2028.3 kg/m3	–
1195.7 K	–	2027.7 kg/m3	–
1196 K	–	2027.1 kg/m3	–
1196.4 K	–	2027 kg/m3	–
1197.1 K	–	2026.4 kg/m3	–
1197.6 K	–	2026.3 kg/m3	–
1198.3 K	–	2025.7 kg/m3	–
1198.8 K	–	2025.1 kg/m3	–
1199.3 K	–	2025 kg/m3	–
1199.6 K	–	2024.4 kg/m3	–
1200 K	–	2024.4 kg/m3	–
1200.6 K	–	2023.8 kg/m3	–
1200.8 K	–	2023.2 kg/m3	–
1201.2 K	–	2023.2 kg/m3	–
1201.6 K	–	2022.6 kg/m3	–
1202.1 K	–	2022 kg/m3	–
1202.3 K	–	2020.8 kg/m3	–
1202.5 K	–	2020.8 kg/m3	–
1203 K	–	2020.2 kg/m3	–
1203.4 K	–	2020.1 kg/m3	–
1203.7 K	–	2019.6 kg/m3	–
